Experimental data taken from patent US11096923B2, “Pharmaceutical composition containing polymyxin B/trimethoprim based therapeutics” (University of Rochester, priority 2016, dated 2021).
Where two headings read alike, the source gives them in different places.

Legend:
[1] = test system: P. aeruginosa strain PA01 biofilms; experiment: Biofilm susceptibility; assay type: cell-based, Pseudomonas aeruginosa; settings: established PA01 biofilm, 24 hrs treatment, 32×MIC
Description: Bacterial strains used in these studies include the conventional laboratory strains Pseudomonas aeruginosa PA01 and Staphylococcus aureus UAMS-1, both of which are antibiotic susceptible and capable of forming robust biofilms. See […], Thomas J R, Nelson […]. Role of the accessory gene regulator (agr) in pathogenesis of staphylococcal osteomyelitis. Infection and immunity 1995; 63:3373-3380. Seven clinical keratitis isolates of Pseudomonas aeruginosa, were collected from the Flaum Eye Institute, Rochester N.Y. and 25 clinical isolates of Staphylococcus aureus from geographically distinct regions of the country where purchased from International Health Management Associates (IHMA; Schaumburg, Ill.). […] After 24 hrs the remaining media and non-adherent cells were removed, biofilms were suspended in 0.8% NaCl and plated to quantify surviving bacteria. […] Biofilms were treated in increasing increments ranging from 0 to 64×MIC.

S. aureus strain UAMS-1 = assay type: cell-based, Staphylococcus aureus; settings: 1×MIC, laser microbial growth monitor over 40 hours
Protocol: Spontaneous resistance to the indicated test agent(s) was measured for P. aeruginosa strain PA01 and S. aureus strain UAMS-1 using two liquid culture approaches. […] Growth was measured using the BacterioScan s216Dx laser microbial growth monitor, with optical measurements taken every 3 minutes over 40 hours. Following 40 hours, samples were plated for to measure viable colony forming units and re-tested for drug susceptibility.
To determine if these colonies represented untreated cells vs. resistant cells, 8 individual colonies from each treatment condition were randomly selected and tested for MICs.
Using an automated laser microbial growth monitor, the optical profiles of these cultures were measured continuously over time. […] Again 8 colonies were selected at random from each treatment group.

P. aeruginosa = experiment: MIC of clinical P. aeruginosa ocular isolates (antibiotic susceptibility profiles); assay type: cell-based, Pseudomonas aeruginosa; settings: Pseudomonas aeruginosa, read-out: Minimum Inhibitory Concentration
Description: A series of genotyping and biological assays were used as a preliminary means to evaluate the clonality of clinical P. aeruginosa isolates collected, as follows. Genomic DNA was purified from each isolate using Qiagen DNeasy kits (Hilden, Germany) and used as a template for polymerase chain reactions to detect the presence of the virulence factors exoS, exoY, exoU, exoT, and perV using previously published primers (Table 1). See Allewelt M, Coleman F T, Grout M, Priebe G P, Pier G B. Acquisition of expression of the Pseudomonas aeruginosa ExoU cytotoxin leads to increased bacterial virulence in a murine model of acute pneumonia and systemic spread. Infection and immunity 2000; 68:3998-4004, Lomholt J A, Poulsen K, Kilian M. Epidemic population structure of Pseudomonas aeruginosa: evidence for a clone that is pathogenic to the eye and that has a distinct combination of virulence factors. Infection and immunity 2001; 69, and Ledbetter E C, Mun J J, Kowbel D, Fleiszig S M. Pathogenic phenotype and genotype of Pseudomonas aeruginosa isolates from spontaneous canine ocular infections. Investigative ophthalmology & visual science 2009; 50. […] See Institute C. Performance Standards for Antimicrobial Susceptibility Testing: Twenty-fifth Informational Supplement. Each isolate's ability to form biofilms was quantified. To do so, wells of a polystyrene plate containing 72-hour established biofilms were washed with 0.8% NaCl to remove non adherent cells and stained with crystal violet. To quantify biofilm staining, plates were washed 3 times with H2O, stain was suspended in 30% glacial acetic acid and the optical density (OD600nm) of each well was determined using an automated plate reader, as previously described. See Jacobs A C, Blanchard C E, Catherman S C, Dunman P M, Murata Y. An ribonuclease T2 family protein modulates Acinetobacter baumannii abiotic surface colonization. PloS one 2014; 9.

[2] = test system: planktonic S. aureus cells; experiment: Antimicrobial kill curves; assay type: cell-based, Staphylococcus aureus; settings: 2× MIC
Protocol: Overnight cultures of the indicated organism were used to inoculate (1:100 dilution) 100 ml of fresh media and grown to mid-exponential phase. […] Aliquots were taken at 1, 2, 3, 4, and 24 hours, serial diluted and plated for colony forming units.

P. aeruginosa biofilm = test system: P. aeruginosa biofilm; design: key: Killing (+) of established biofilms; settings: established biofilms; adenylate kinase reporter; Blanchard et al., 2016; cited from earlier work

Row | Structure (SMILES) | reduction in biofilm-associated CFU [1] [log] | start of outgrowth of treated culture (S. aureus strain UAMS-1) [h] | MIC (P. aeruginosa; P. aeruginosa ocular isolate RW01 (cornea)) [µg/mL] | MIC (P. aeruginosa; P. aeruginosa ocular isolate RW02 (cornea)) [µg/mL] | MIC (P. aeruginosa; P. aeruginosa ocular isolate RW03 (cornea)) [µg/mL] | MIC (P. aeruginosa; P. aeruginosa ocular isolate RW04 (conjunctiva)) [µg/mL] | MIC (P. aeruginosa; P. aeruginosa ocular isolate RW05 (cornea)) [µg/mL] | MIC (P. aeruginosa; P. aeruginosa ocular isolate RW06 (cornea)) [µg/mL] | MIC (P. aeruginosa; P. aeruginosa ocular isolate RW07 (cornea)) [µg/mL] | reduction in CFU at 24 hours [2] [log] | P. aeruginosa biofilm AK Signal (P. aeruginosa biofilm)
1 | CO[C@H]1/C=C/O[C@@]2(C)Oc3c(C)c(O)c4c(O)c(c(/C=N/N5CCN(C)CC5)c(O)c4c3C2=O)NC(=O)/C(C)=C\C=C\[C@H](C)[C@H](O)[C@@H](C)[C@@H](O)[C@@H](C)[C@H](OC(C)=O)[C@@H]1C [Rifampicin, rifampicin] | 5 | 8 |  |  |  |  |  |  |  |  | 
2 | NC[C@H]1O[C@H](O[C@H]2[C@H](O)[C@@H](O[C@H]3O[C@H](CO)[C@@H](O)[C@H](N)[C@H]3O)[C@H](N)C[C@@H]2N)[C@H](N)C[C@@H]1O [Tobramycin, tobramycin] | 5 |  | 0.24 | 0.24 | 0.24 | 0.48 | 0.48 | 0.24 | 0.24 | 6 | +
